“And” between values parts separate entries of the source, which are not always exact repeats. Identical values can stand only once.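 These data come from cells grown in 96-well plates and exposed to compound for 48 hours at five concentrations. At the GI50, growth is halved. TGI: concentration producing complete growth inhibition.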
How the values were obtained:
Assay in all cases: NCI-60 cell line screen, 48 h
786-0 renal = tested on: 786-0 renal
CCRF-CEM leukemia = tested on: CCRF-CEM leukemia
M14 melanoma = tested on: M14 melanoma
MOLT-4 leukemia = tested on: MOLT-4 leukemia
NCI-H23 lung = tested on: NCI-H23 lung
OVCAR-3 ovarian = tested on: OVCAR-3 ovarian
SK-MEL-28 melanoma = tested on: SK-MEL-28 melanoma
SN12C renal = tested on: SN12C renal
UACC-257 melanoma = tested on: UACC-257 melanoma
NCI-H226 lung = tested on: NCI-H226 lung

Row | SMILES | TGI (786-0 renal) | TGI (CCRF-CEM leukemia) | TGI (M14 melanoma) | TGI (MOLT-4 leukemia) | TGI (NCI-H23 lung) | TGI (OVCAR-3 ovarian) | TGI (SK-MEL-28 melanoma) | TGI (SN12C renal) | TGI (UACC-257 melanoma) | TGI (NCI-H226 lung) | GI50 (NCI-H226 lung) | GI50 (M14 melanoma) | GI50 (MOLT-4 leukemia) | GI50 (NCI-H23 lung) | GI50 (OVCAR-3 ovarian) | GI50 (SK-MEL-28 melanoma) | GI50 (SN12C renal) | GI50 (UACC-257 melanoma)
1 | COc1cc(OC)c2c(O)cc(CC(C)O)cc2c1 (stereo unspecified) | > 100 µM | > 100 µM | > 100 µM | > 100 µM | > 100 µM | > 100 µM | > 100 µM | > 100 µM | > 100 µM |  |  |  |  |  |  |  |  | 
2 | C=CCC(C)C12CCNC(Cc3ccc(O)cc31)C2C (stereo unspecified) | > 100 µM | > 100 µM | > 100 µM | > 100 µM | > 100 µM |  | > 100 µM | > 100 µM | > 100 µM | > 100 µM |  |  |  |  |  |  |  | 
3 | CC(=O)Oc1ccc(/C=C/C(=O)O[C@@H](C)[C@H](C)OC(=O)/C=C/c2ccc(OC(C)=O)c(OC(C)=O)c2)cc1OC(C)=O | > 100 µM | 42.3 µM | 58.4 µM | > 100 µM | 25.8 µM | 51.6 µM | 77.7 µM | > 100 µM | 65.1 µM |  |  |  |  |  |  |  |  | 
4 | Cc1ccc2c(=O)cc(-c3csc4ccccc34)[nH]c2n1 | 16 µM | 1.59 µM | 0.031 µM | 1.09 µM | 2.51 µM | < 0.01 µM | > 100 µM | 10.9 µM |  | 0.0863 µM |  |  |  |  |  |  |  | 
5 | COC(=O)CCCc1ccc2c(c1)CC1(C2)Cc2cc3c(cc2C1)CCCC3 | > 100 µM |  | 68.2 µM | 38.9 µM | > 100 µM | > 100 µM |  | > 100 µM | > 100 µM | > 100 µM |  |  |  |  |  |  |  | 
6 | Cn1ccnc1S/C(=C\C=C(C#N)C#N)c1ccc(Cl)cc1 | 5.21 µM | > 11.2 µM | 5.02 µM | 6.25 µM | 5.31 µM | 5.29 µM |  | > 25.7 µM | 5.5 µM | > 22.8 µM | 3.97 µM |  |  |  |  |  |  | 
7 | CC(C)C[C@H](NC(=O)[C@H](Cc1cccc2ccccc12)NC(=O)N1CCOCC1)B(O)O | 0.199 µM and 1.09 µM |  | 0.00154 µM and < 0.0125 µM |  | 0.0076 µM | 0.00171 µM | 0.00096 µM and < 0.0329 µM | 0.0115 µM and < 0.0266 µM | 0.00495 µM | 0.00049 µM |  | 0.000443 µM | 0.000339 µM | 0.00188 µM | 0.000519 µM | 0.000205 µM | 0.0029 µM | 0.00172 µM
8 | CCCCOC(=O)CNC(=O)OCCCCC#CC#CCCCCOC(=O)NCC(=O)OCCCC | > 100 µM | > 100 µM | > 100 µM | > 100 µM | > 100 µM |  |  | > 100 µM | > 100 µM | > 100 µM |  |  |  |  |  |  |  | 
9 | CC(=O)C1CC(C)=CCC12C(=O)Nc1ccccc12 (stereo unspecified) | > 100 µM | > 100 µM | > 100 µM | > 100 µM | > 100 µM | > 100 µM | > 100 µM | > 100 µM |  | > 100 µM |  |  |  |  |  |  |  | 
10 | COc1ccc(CCn2cnc3ccccc32)cc1 | > 100 µM | > 100 µM | > 100 µM | > 100 µM | > 100 µM | > 100 µM |  | > 100 µM | > 100 µM | > 100 µM |  |  |  |  |  |  |  | 
11 | CC(C)Oc1c(-c2c(OC(C)C)c(=O)c2=O)c(=O)c1=O | > 66 µM | > 100 µM | > 100 µM | > 68.1 µM | > 75.6 µM |  | > 100 µM | > 62.7 µM | > 100 µM | > 100 µM |  |  |  |  |  |  |  | 
12 | S=C1c2ccccc2NC(=NC2CCCC2)C2CSCN12 (stereo unspecified) | > 100 µM | > 100 µM | > 100 µM | > 100 µM |  | > 100 µM | > 100 µM | > 100 µM | > 100 µM | > 100 µM |  |  |  |  |  |  |  | 
13 | CCC(CCCN)Nc1cc(OC)cc2cccnc12 (stereo unspecified) | > 100 µM | > 100 µM | > 100 µM |  |  | > 100 µM | > 100 µM | > 100 µM | 62.8 µM | > 100 µM |  |  |  |  |  |  |  | 
14 | CCC1C(=O)C[C@H]2[C@@H]3C(O)CC4=CC(=O)CC[C@]4(C)[C@H]3CC[C@]12C (stereo partly specified) | > 50 µM | > 50 µM | > 50 µM | > 50 µM | > 50 µM | > 50 µM | > 50 µM | > 50 µM | > 50 µM |  |  |  |  |  |  |  |  | 
15 | COc1ccc(N[C@H](CS(=O)c2ccc(C)cc2)c2ccc(F)cc2)cc1 (stereo partly specified) | > 100 µM | > 100 µM | > 100 µM | > 100 µM | > 100 µM | > 100 µM | > 100 µM | > 100 µM | > 100 µM |  |  |  |  |  |  |  |  | 
16 | Brc1ccc(N=NN2CCCCC2)cc1 | > 100 µM | 56.9 µM | > 100 µM | 46.2 µM | > 100 µM | > 100 µM |  | > 100 µM | > 100 µM | > 100 µM |  |  |  |  |  |  |  | 
17 | COc1ccc2c3c1OC1CC(O)C=CC31CCN(C)C2 (stereo unspecified) |  | > 150 µM |  | > 150 µM | > 150 µM | > 150 µM | > 150 µM | > 150 µM | > 150 µM | > 150 µM |  |  |  |  |  |  |  | 

Source: PubChem BioAssay (NCI)
